Two compounds from ChEMBL document CHEMBL2396564, “Synthesis and biological evaluation of a targeted DNA-binding transcriptional activator with HDAC8 inhibitory activity” (Bioorg Med Chem, 2013) can be followed below.

For orientation: IC50 means the concentration that inhibits the measured activity by half. Read a low IC50 as greater potency.

The target in data set [1] is T1, Histone deacetylase 8 (Mus musculus) (UniProt Q8VH37).
T1 sequence (whole entry): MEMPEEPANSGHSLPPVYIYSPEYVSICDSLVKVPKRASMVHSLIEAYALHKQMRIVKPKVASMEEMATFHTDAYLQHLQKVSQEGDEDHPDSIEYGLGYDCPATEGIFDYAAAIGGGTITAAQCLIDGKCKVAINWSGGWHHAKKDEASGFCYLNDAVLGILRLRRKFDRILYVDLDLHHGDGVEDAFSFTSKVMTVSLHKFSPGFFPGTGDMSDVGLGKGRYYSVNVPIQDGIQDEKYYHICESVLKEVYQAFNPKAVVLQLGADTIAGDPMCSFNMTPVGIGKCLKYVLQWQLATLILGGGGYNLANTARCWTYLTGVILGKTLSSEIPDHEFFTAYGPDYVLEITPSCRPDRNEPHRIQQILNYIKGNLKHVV
Briefly: Inhibition of HDAC8 in C57BL/6 mouse embryonic fibroblasts assessed as induction of histone H3 hyperacetylation in promoter region of Rex1 at 100 nM after 24 hrs by ChIP analysis.

The target of the next data set is T2, Histone deacetylase 8 (Homo sapiens, UniProt Q9BY41).
T2 sequence (Q9BY41 whole entry): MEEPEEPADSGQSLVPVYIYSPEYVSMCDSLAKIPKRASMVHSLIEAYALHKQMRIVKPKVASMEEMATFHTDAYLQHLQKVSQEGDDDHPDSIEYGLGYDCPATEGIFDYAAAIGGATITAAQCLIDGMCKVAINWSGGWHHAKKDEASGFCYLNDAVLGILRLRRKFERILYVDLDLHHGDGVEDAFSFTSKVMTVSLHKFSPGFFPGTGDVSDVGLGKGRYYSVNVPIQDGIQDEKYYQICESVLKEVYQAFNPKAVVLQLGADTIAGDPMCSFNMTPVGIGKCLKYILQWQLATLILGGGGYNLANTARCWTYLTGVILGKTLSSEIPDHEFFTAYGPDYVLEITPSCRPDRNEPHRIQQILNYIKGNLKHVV
Briefly: Inhibition of HDAC8 (unknown origin) after 30 mins by fluorometric analysis.

Data set [2] concerns the target T1, Histone deacetylase 8 (Mus musculus). Briefly: Inhibition of HDAC8 in C57BL/6 mouse embryonic fibroblasts assessed as induction of histone H3 hyperacetylation in promoter region of Nanog at 100 nM after 24 hrs by ChIP analysis.
The target is the same in data set [3]. Nature of the data set: Inhibition of HDAC8 in C57BL/6 mouse embryonic fibroblasts assessed as induction of histone H3 hyperacetylation in promoter region of Oct3/4 at 100 nM after 24 hrs by ChIP analysis.
The test system of data set [4] is MEF. Nature of the data set: Upregulation of c-Myc expression in C57BL/6 mouse embryonic fibroblasts at 100 nM after 24 hrs by qPCR analysis. The data set is classed as functional, cell-based. (Real-time PCR tracks product formation cycle by cycle.)
Another data set addresses Histone deacetylase 2 (Homo sapiens, UniProt Q92769). Briefly: Inhibition of HDAC2 (unknown origin) after 30 mins by fluorometric analysis.
The target in data set [5] is T1, Histone deacetylase 8 (Mus musculus). Nature of the data set: Inhibition of HDAC8 in C57BL/6 mouse embryonic fibroblasts assessed as upregulation of Nanog expression at 100 nM after 24 hrs by qPCR analysis relative to control.
Data set [6] has the same target. Nature of the data set: Inhibition of HDAC8 in C57BL/6 mouse embryonic fibroblasts assessed as upregulation of Oct3/4 expression at 100 nM after 24 hrs by qPCR analysis relative to control.
For data set [7] the target is unchanged. Nature of the data set: Inhibition of HDAC8 in C57BL/6 mouse embryonic fibroblasts assessed as induction of histone H3 hyperacetylation in promoter region of Cdh1 at 100 nM after 24 hrs by ChIP analysis.
The subject of data set [8] is MEF. Briefly: Cytotoxicity against C57BL/6 mouse embryonic fibroblasts assessed as cell viability at 10 uM after 24 hrs by WST-8 assay. In kind it is cell-based.
In data set [9] the test system is MEF. Briefly: Upregulation of Klf4 expression in C57BL/6 mouse embryonic fibroblasts at 100 nM after 24 hrs by qPCR analysis. The data set is classed as functional, cell-based.
The target in data set [10] is T1, Histone deacetylase 8 (Mus musculus). Briefly: Inhibition of HDAC8 in C57BL/6 mouse embryonic fibroblasts assessed as induction of histone H3 hyperacetylation in promoter region of Lhx1 at 100 nM after 24 hrs by ChIP analysis.
The target is the same in data set [11]. Briefly: Inhibition of HDAC8 in C57BL/6 mouse embryonic fibroblasts assessed as upregulation of Cdh1 expression at 100 nM after 24 hrs by qPCR analysis relative to control.
Data set [12] has the same target. Nature of the data set: Inhibition of HDAC8 in C57BL/6 mouse embryonic fibroblasts assessed as upregulation of Otx2 expression at 100 nM after 24 hrs by qPCR analysis relative to control.
Data set [13] has the same target. Nature of the data set: Inhibition of HDAC8 in C57BL/6 mouse embryonic fibroblasts assessed as induction of histone H3 hyperacetylation in promoter region of Otx2 at 100 nM after 24 hrs by ChIP analysis.
In another data set the target is Histone deacetylase 1 (Homo sapiens, UniProt Q13547). Nature of the data set: Inhibition of HDAC1 (unknown origin) after 30 mins by fluorometric analysis.
The target of data set [14] is T1, Histone deacetylase 8 (Mus musculus). Briefly: Inhibition of HDAC8 in C57BL/6 mouse embryonic fibroblasts assessed as upregulation of Lhx1 expression at 100 nM after 24 hrs by qPCR analysis relative to control.
Data set [15] has the same target. Briefly: Inhibition of HDAC8 in C57BL/6 mouse embryonic fibroblasts assessed as upregulation of Rex1 expression at 100 nM after 24 hrs by qPCR analysis relative to control.
Data set [16] shares this target. Nature of the data set: Inhibition of HDAC8 in C57BL/6 mouse embryonic fibroblasts assessed as upregulation of Sox2 expression at 100 nM after 24 hrs by qPCR analysis relative to control.
For data set [17] the target is unchanged. Briefly: Inhibition of HDAC8 in C57BL/6 mouse embryonic fibroblasts assessed as upregulation of Dppa4 expression at 100 nM after 24 hrs by qPCR analysis relative to control.
In data set [18] the target is T3, Histone deacetylase 8 (Homo sapiens) (UniProt Q9BY41).
T3 sequence (whole entry): T2 sequence (Q9BY41 whole entry)
Nature of the data set: Ratio of trichostatin A IC50 to compound IC50 for HDAC8 (unknown origin).

Activity calls are given as the source filed them. The rule behind the calls is not given here.

Sequence of Histone deacetylase 2 (Q92769 whole entry): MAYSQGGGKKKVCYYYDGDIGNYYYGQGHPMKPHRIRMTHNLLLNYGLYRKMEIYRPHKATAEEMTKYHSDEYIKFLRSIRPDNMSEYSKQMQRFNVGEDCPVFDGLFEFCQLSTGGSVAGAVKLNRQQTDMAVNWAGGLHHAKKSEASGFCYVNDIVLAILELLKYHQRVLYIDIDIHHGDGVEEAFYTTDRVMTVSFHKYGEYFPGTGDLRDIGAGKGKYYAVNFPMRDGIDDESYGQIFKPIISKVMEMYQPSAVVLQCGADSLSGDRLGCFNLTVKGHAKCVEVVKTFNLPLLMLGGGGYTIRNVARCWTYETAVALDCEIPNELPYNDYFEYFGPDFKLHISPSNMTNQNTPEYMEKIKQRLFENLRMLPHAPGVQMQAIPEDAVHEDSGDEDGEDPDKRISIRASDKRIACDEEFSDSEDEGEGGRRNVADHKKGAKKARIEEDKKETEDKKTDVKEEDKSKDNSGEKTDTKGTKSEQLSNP
Sequence of Histone deacetylase 1 (Q13547 whole entry): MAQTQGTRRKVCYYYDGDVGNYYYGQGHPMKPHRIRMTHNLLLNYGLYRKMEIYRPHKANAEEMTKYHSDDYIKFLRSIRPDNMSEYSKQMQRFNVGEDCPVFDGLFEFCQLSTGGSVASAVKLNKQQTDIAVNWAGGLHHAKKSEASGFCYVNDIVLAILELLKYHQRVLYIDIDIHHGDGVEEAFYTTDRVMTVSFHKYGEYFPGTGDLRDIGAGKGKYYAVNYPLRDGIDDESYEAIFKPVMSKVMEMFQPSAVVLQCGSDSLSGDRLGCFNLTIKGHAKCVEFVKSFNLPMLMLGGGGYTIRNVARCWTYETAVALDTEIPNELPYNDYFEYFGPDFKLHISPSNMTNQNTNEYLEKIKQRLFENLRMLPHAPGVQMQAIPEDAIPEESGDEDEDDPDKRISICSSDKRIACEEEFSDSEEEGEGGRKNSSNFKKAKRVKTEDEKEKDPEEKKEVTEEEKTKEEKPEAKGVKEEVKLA

Turning to `CN(C)CCCNC(=O)c1cc(NC(=O)c2cc(NC(=O)c3cc(NC(=O)c4nc(NC(=O)CCCNC(=O)c5cc(NC(=O)c6cc(NC(=O)c7cc(NC(=O)c8nc(NC(=O)CCNC(=O)CCNC(=O)c9ccc(NC(=O)CCCCCCC(=O)NO)cc9)cn8C)cn7C)cn6C)cn5C)cn4C)cn3C)cn2C)cn1C`, the inhibition entry in data set [1], in [2], in data set [3], in [7] and in [13] was “Active” throughout. Also, the IC50 turned out to be 820 nM against Histone deacetylase 8, 770 nM at Histone deacetylase 2 and 370 nM against Histone deacetylase 1. Besides, the outcome in the data set with MEF [4] and in the data set on MEF [9] was inactive. In addition, the fold change (FC) in data set [5] is 20; in data set [6] it was 20; in data set [11] it was 25; in data set [12] it was 40; in data set [15], 60; in [16], 6. Further, the fold change (FC) in data set [17] was found to be 2. Also, the Activity entry with MEF [8] was “Non-toxic”. The inhibition result in data set [10] and in data set [14] was “inactive” throughout.

Turning to `CN(C)CCCNC(=O)c1cc(NC(=O)c2cc(NC(=O)c3cc(NC(=O)c4nc(NC(=O)CCCNC(=O)c5cc(NC(=O)c6cc(NC(=O)c7cc(NC(=O)c8nc(NC(=O)CCNC(=O)CCNC(=O)CCCCCCC(=O)NO)cn8C)cn7C)cn6C)cn5C)cn4C)cn3C)cn2C)cn1C`, the inhibition result in data set [1], in [2], in data set [3], in [7], in data set [10] and in [13] was “Active” in each case. For the same compound, the IC50 at Histone deacetylase 8 came to 130 nM; against Histone deacetylase 2 it was 1120 nM; on Histone deacetylase 1 it was 490 nM. Besides, the outcome in the data set on MEF [4] and with MEF [9] was inactive. For the same compound, the fold change (FC) in [5] came to 16; in [6], 20; in data set [11], 25; in [12] it was 74; in [14], 2.6; in [15], 60. Moreover, the figures for the fold change (FC) in data set [16] and in data set [17] were 6 and 2, respectively. Further, the Ratio IC50 in [18] turned out to be 10. Also, the Activity result in the data set with MEF [8] is “Non-toxic”.
